Reference: PMC6315564, “Geospallins A–C: New Thiodiketopiperazines with Inhibitory Activity against Angiotensin-Converting Enzyme from a Deep-Sea-Derived Fungus Geosmithia pallida FS140” (Marine Drugs, 2018)

biological target: angiotensin-converting enzyme (ACE) (Homo sapiens, UniProt P12821); assay: Angiotensin-converting enzyme (ACE) inhibitory assay (N-hippuryl-His-Leu substrate, HPLC detection of hippuric acid); format: biochemical; conditions: 37 °C, 60 min, captopril positive control, read-out: IC50 against angiotensin-converting enzyme (ACE)
Method: ACE inhibitory activity was determined by a previously reported method. In brief, 20 μL thiodiketopiperazines dissolved in DMSO with different concentrations were added to 120 μL N-hippuryl–His–Leu substrates, then preheated in water for 3–5 min; next, 10 μL ACE enzymatic solution was added and mixtures were incubated at 37 °C for 60 min, and 150 μL 1 M HCl was added to stop the reaction. The mixture was loaded for HPLC with a flow rate of 0.5 mL/min by 60% methanol, and the absorbance at 228 nm was detected. To serve as a blank, 10 μL pH 8.3 boric acid replaced the thiodiketopiperazines. Hippuric acid solutions at 10, 20, 40, 60, 80, and 100 μg/mL were prepared using 10 μL pH 8.3 boric acid. One enzymatic unit was defined as the amount giving the production of 1 μM hippuric acid by the catalyzation of the substrate N-hippuryl–His–Leu at 37 °C in 1 min. Captopril was used as a positive control.

Sequence of angiotensin-converting enzyme (ACE) (P12821 30-1306, species assumed): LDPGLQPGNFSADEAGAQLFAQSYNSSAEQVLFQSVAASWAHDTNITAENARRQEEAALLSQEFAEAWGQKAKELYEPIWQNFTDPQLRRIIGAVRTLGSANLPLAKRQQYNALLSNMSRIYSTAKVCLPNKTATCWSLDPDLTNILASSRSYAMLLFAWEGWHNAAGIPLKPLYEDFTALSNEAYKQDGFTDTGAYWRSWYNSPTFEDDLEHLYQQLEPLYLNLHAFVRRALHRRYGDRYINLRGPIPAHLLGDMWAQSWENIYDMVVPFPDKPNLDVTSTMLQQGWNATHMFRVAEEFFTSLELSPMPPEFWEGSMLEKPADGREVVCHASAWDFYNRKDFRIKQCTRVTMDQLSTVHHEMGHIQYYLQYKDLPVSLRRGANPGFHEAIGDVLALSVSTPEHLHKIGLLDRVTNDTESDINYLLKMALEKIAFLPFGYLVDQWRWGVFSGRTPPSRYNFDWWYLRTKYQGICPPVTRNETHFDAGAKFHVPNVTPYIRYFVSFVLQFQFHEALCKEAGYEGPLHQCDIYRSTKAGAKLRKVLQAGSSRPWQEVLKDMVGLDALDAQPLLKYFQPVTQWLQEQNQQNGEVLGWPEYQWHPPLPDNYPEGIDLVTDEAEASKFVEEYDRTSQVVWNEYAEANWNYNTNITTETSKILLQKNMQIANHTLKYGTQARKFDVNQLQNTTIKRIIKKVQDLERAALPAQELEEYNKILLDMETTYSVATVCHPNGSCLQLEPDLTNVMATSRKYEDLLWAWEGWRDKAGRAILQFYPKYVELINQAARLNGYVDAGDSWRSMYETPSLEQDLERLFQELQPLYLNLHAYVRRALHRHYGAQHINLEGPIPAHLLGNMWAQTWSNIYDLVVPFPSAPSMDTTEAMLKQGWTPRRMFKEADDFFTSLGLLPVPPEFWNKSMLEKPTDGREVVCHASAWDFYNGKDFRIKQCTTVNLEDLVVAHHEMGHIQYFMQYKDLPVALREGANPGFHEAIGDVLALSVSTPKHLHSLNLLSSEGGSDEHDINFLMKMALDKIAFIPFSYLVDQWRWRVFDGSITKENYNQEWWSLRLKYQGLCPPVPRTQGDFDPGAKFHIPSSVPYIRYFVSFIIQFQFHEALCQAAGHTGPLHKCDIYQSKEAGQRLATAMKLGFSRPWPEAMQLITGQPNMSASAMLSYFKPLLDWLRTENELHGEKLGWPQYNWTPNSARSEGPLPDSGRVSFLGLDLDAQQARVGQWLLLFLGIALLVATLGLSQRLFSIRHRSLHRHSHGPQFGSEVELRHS

COC12CC3(O)C(SC)C=CC(OC(C)=O)C3N1C(=O)C(CO)(SC)N(C)C2=O (stereo not drawn) [Compound 1, geospallin A] and CSC1C=CC(OC(C)=O)C2N3C(=O)C(CO)(SC)N(C)C(=O)C3(O)CC12O (stereo not drawn) [Compound 2, geospallin B] are within error of each other in IC50: 35 ± 5.2 µM for the first, 31 ± 3.3 µM for the second.

Work on CSC1(CO)C(=O)N2C3C(OC(C)=O)C(=O)C=CC3(O)CC2(SC)C(=O)N1C (stereo not drawn) [Compound 3, geospallin C] yielded an IC50 of 29 ± 3.3 µM.
